In data set [1] the test system is microorganisms responsible for the odour in perspiration. The data set can be described thus: destruction of odour-causing microorganisms. To be noted: disinfectant agent in the MgO/ZnO deodorant formulation, 0.5% to 1% by weight. The source says: It is believed that the previously recognized synergy between the zinc and magnesium compounds has been further augmented with the disinfection capacity of a potassium and/or […]. Turning to the specific formulations, in a first embodiment, the deodorant formulation includes magnesium oxide in an amount of between 1% and 2.5% by weight and zinc oxide in an amount of between 0.5% and 1.5% by weight. In order to further augment the efficacy of the formulation, a disinfectant agent is included. As an example, potassium sulfate in an amount of between 0.5% and 1% by weight. Propylene glycol in an amount between 45% and 57% by weight is included. Other polyols may be substituted such as glycenol, etc. Sodium stearate is also present in am amount between 4% and 8% by weight. Glycerin is also present in an amount from between 6% and 10% by weight. The balance of the formulation is obviously water. […] The provision for the suspension is very convenient, since the active ingredients are all present and this suspension can used as a precursor in the formulation of other deodorizing products.

For data set [2] the following is noted: reported pH of the agent; cited from earlier work.
The conditions of data set [3]: broad cross section of people; '16-20 hour protection and more'; previously presented in U.S. Pat. No. 5,512,274; cited from earlier work.

In the case of `O=S(=O)([O-])[O-].[K+].[K+]` [potassium sulfate], in data set [1], the “efficacy in destroying the microorganisms responsible for the odour in perspiration” value is given as “particularly effective”.

On to `[Mg+2].[OH-].[OH-]` [magnesium hydroxide], for which the pH in data set [2] is recorded as about 10.0. In addition, the “duration of deodorant protection” value in data set [3] was 16 to 20 h.

For the compound `[Ca+2].[OH-].[OH-]` [Lime, calcium hydroxide], the pH in data set [2] is at least 12.5.

The values above are taken from patent US20140271517A1, “DEODORANT FORMULATION” (priority 2013, published 2014).
